Patent US8106050B2, “Derivatives of pyrrolo-pyrazines having a kinase inhibitory activity and their biological applications” (Centre National de la Recherche Scientifique (C.N.R.S.), priority 2002, dated 2012)
Counter-ions that a name gives are not always drawn.

Assays:
[1] = target: CDK5/p25 (Homo sapiens, UniProt Q00535); assay: CDK5/p25 kinase assay (histone H1, 15 μM ATP); type: biochemical, mammalian; settings: Table 1
Method: (§1) Blank values were subtracted and activities calculated as pmoles of phosphate incorporated for a 10 min. incubation. […] Controls were performed with appropriate dilutions of dimethylsulfoxide. In a few cases phosphorylation of the substrate was assessed by autoradiography after SDS-PAGE.
CDK5/p25 was reconstituted by mixing equal amounts of recombinant mammalian CDK5 and p25 expressed in E. coli as GST (Glutathione-S-transferase) fusion proteins and purified by affinity chromatography on glutathione-agarose (p25 is a truncated version of p35, the 35 kDa CDK5 activator). Its activity was assayed in buffer C as described for CDK1/cyclin B.
(§2) Kinases were assayed as above described in the presence of increasing concentrations of aloisines.

[2] = target: CDK1/cyclin B; assay: CDK1/cyclin B kinase assay (histone H1, 15 μM ATP); type: biochemical, starfish (Marthasterias glacialis); settings: 15 μM ATP, Table 1
Method: as §1
CDK1/cyclin B was extracted in homogenisation buffer from M phase starfish (Marthasterias glacialis) oocytes and purified by affinity chromatography on p9^CKShs1-sepharose beads, from which it was eluted by free p9^CKShs1. […] ATP (3,000 Ci/mmol; 1 mCi/ml) in a final volume of 30 μl. After 10 min. incubation at 30° C., 25 μl aliquots of supernatant were spotted onto P81 phosphocellulose papers and treated as described above.
as §2

[3] = target: GSK-3α/β; assay: GSK-3 kinase assay (GS-1 peptide, 15 μM ATP); type: biochemical, porcine; settings: 15 μM ATP, Table 1; read-out: IC50 GSK-3
Method: as §1
GSK-3α/β was either purified from porcine brain or expressed in and purified from insect Sf9 cells. […] ATP (3,000 Ci/mmol; 1 mCi/ml) in a final volume of 30 μl. After 30 min. incubation at 30° C., 25 μl aliquots of supernatant were spotted onto 2.5×3 cm pieces of Whatman P81 phosphocellulose paper, and, 20 sec. later, the filters were washed five times (for at least 5 min. each time) in a solution of 10 ml phosphoric acid/liter of water. The wet filters were counted in the presence of 1 ml ACS (Amersham) scintillation fluid.
as §2

Chain of CDK5/p25 (Q00535 whole entry, species assumed): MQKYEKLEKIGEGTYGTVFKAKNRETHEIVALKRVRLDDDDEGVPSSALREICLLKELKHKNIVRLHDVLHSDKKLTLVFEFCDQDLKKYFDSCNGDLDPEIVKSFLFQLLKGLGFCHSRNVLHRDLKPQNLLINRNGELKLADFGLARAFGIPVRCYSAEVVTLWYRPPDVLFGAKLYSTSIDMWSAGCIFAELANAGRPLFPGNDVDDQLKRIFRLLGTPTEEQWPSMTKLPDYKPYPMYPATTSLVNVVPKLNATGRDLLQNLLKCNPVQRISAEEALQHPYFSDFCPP
Chain of CDK5/p25 (Q15078 99-307 partner limits assumed, species assumed): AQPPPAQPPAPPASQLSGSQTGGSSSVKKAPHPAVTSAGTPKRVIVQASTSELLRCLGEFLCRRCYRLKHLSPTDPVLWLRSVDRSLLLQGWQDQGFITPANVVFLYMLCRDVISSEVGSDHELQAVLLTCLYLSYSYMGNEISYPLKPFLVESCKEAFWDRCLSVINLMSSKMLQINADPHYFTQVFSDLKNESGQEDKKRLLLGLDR

For c1coc(-c2cc3nccnc3[nH]2)c1 [1 (RP19), 6-(2-Furyl)[5H]pyrrolo[2,3-b]pyrazine], the IC50 [1] was 9.3 µM, the IC50 [2] was 12 µM and the melting point was 232.6 °C. The IC50 [3] was 15 µM.

c1csc(-c2cc3nccnc3[nH]2)c1 [2 (RP6), 6-(2-Thienyl)[5H]pyrrolo[2,3-b]pyrazine] gave an IC50 [1] of 2 µM, an IC50 [2] of 7 µM and a melting point of 260.3 °C. For the same compound, the IC50 [3] was 1.2 µM.

With c1cnc2[nH]c(-c3ccsc3)cc2n1 [3 (RP128)] the IC50 [1] was 1 µM, the IC50 [2] was 2.3 µM and the melting point was 230 °C (dec.). The IC50 [3] was 0.8 µM.

In the case of c1ccc(-c2cc3nccnc3[nH]2)nc1 [4 (RP13), 6-(2-Pyridyl)[5H]pyrrolo[2,3-b]pyrazine], the IC50 [1] is reported as 53 µM, the IC50 [2] is reported as 21 µM and the melting point is reported as 233.1 °C. It also gave an IC50 [3] of 15 µM.

Compound c1ccc(-c2cc3nccnc3[nH]2)cc1 [5 (RP7), 6-Phenyl[5H]pyrrolo[2,3-b]pyrazine] has an IC50 [1] of 4 µM, an IC50 [2] of 5 µM and a melting point of 216 °C. The IC50 [3] was 2.3 µM.

In the case of Br.Oc1ccccc1-c1cc2nccnc2[nH]1 [11 (RP109), 6-(2-Hydroxyphenyl)[5H]pyrrolo[2,3-b]pyrazine hydrobromide], the IC50 [1] is reported as 3 µM, the IC50 [2] is reported as 2.5 µM and the melting point is reported as 250 °C (dec.). It also gave an IC50 [3] of 6.5 µM.

For COc1ccc(-c2cc3nccnc3[nH]2)cc1 [14 (RP11), 6-(4-Methoxyphenyl)[5H]pyrrolo[2,3-b]pyrazine], the IC50 [1] was 4 µM, the IC50 [2] was 2 µM and the melting point was 256.1 °C (dec.). It also gave an IC50 [3] of 1.1 µM.

COc1cc(OC)cc(-c2cc3nccnc3[nH]2)c1 [16 (RP21), 6-(3,5-Dimethoxyphenyl)[5H]pyrrolo[2,3-b]pyrazine] showed an IC50 [1] greater than 100 µM, a melting point of 216.7 °C and an IC50 [3] of 60 µM.

Work on COc1cc(-c2cc3nccnc3[nH]2)cc(OC)c1OC [17 (RP16), 6-(3,4,5-Trimethoxyphenyl)[5H]pyrrolo[2,3-b]pyrazine] yielded an IC50 [1] greater than 100 µM, a melting point of 231.7 °C and an IC50 [3] of 85 µM.

In the case of Clc1cc(Cl)cc(-c2cc3nccnc3[nH]2)c1 [20 (RP15), 6-(3,5-Dichlorophenyl)[5H]pyrrolo[2,3-b]pyrazine], the IC50 [1] is reported as greater than 100 µM, the IC50 [2] is reported as greater than 100 µM and the melting point is reported as 252 °C (dec.). It also gave an IC50 [3] greater than 100 µM.

For Brc1ccc(-c2cc3nccnc3[nH]2)cc1 [21 (RP77), 6-(4-Bromophenyl) [5H]pyrrolo[2,3-b]pyrazine], the IC50 [1] was greater than 100 µM, the melting point was 256 °C (dec.) and the IC50 [3] was 6 µM.

For FC(F)(F)c1ccc(-c2cc3nccnc3[nH]2)cc1 [22 (RP8), 6-(4-Trifluoromethylphenyl)[5H]pyrrolo[2,3-b]pyrazine], the IC50 [1] was greater than 100 µM, the IC50 [2] was 6 µM and the melting point was 238 °C (dec.). For the same compound, the IC50 [3] was 7.2 µM.

For CN(C)c1ccc(-c2cc3nccnc3[nH]2)cc1 [26 (RP129), 6-(4-Dimethylaminophenyl)[5H]pyrrolo[2,3-b]pyrazine], the IC50 [1] was greater than 100 µM, the IC50 [2] was 20 µM and the melting point was 271 °C (dec.). The IC50 [3] was 12 µM.

With Cc1c(-c2ccc(OS(=O)(=O)N(C)C)cc2)[nH]c2nccnc12 [31 (RP125), 6-(4-Dimethylaminosulfamoyloxyphenyl)-7-methyl[5H]pyrrolo[2,3-b]pyrazine] the IC50 [1] was 0.9 µM, the IC50 [2] was 0.7 µM and the IC50 [3] was 0.5 µM.

Work on CCCc1c(-c2ccc(OC)cc2)[nH]c2nccnc12 [32 (RP127)] yielded an IC50 [2] of 0.4 µM, a melting point of 188.5 °C and an IC50 [3] of 0.4 µM.

For Br.CCCc1c(-c2ccc(O)cc2)[nH]c2nccnc12 [33 (RP132), 6-(4-Hydroxyphenyl)-7-propyl[5H]pyrrolo[2,3-b]pyrazine hydrobromide], the IC50 [2] was 25 µM, the melting point was 244 °C (dec.) and the IC50 [3] was 1.8 µM.

Compound C=CCc1c(-c2ccc(OC)cc2)[nH]c2nccnc12 [34 (RP110), 7-Allyl-6-(4-methoxyphenyl)[5H]pyrrolo[2,3-b]pyrazine] has an IC50 [2] of 1 µM, a melting point of 193.8 °C and an IC50 [3] of 0.6 µM.

With CC(C)c1c(-c2ccc(Cl)cc2)[nH]c2nccnc12 [37 (RP90), 6-(4-Chlorophenyl)-7-isopropyl[5H]pyrrolo[2,3-b]pyrazine] the IC50 [2] was 0.85 µM, the melting point was 208.6 °C and the IC50 [3] was 0.75 µM.

Work on CCCCc1c(-c2ccc(Cl)cc2)[nH]c2nccnc12 [40 (RP108), 7-n-Butyl-6-(4-chlorophenyl)[5H]pyrrolo[2,3-b]pyrazine] yielded an IC50 [1] greater than 100 µM, an IC50 [2] of 0.2 µM and a melting point of 200 °C. The IC50 [3] was 5.9 µM.

CCCCCCCc1c(-c2ccc(OC)cc2)[nH]c2nccnc12 [41 (RP111), 7-n-Heptyl-6-(4-methoxyphenyl)[5H]pyrrolo[2,3-b]pyrazine] gave an IC50 [1] greater than 100 µM, an IC50 [2] of 7 µM and a melting point of 132.5 °C. For the same compound, the IC50 [3] was greater than 10 µM.

Compound COc1ccc(-c2c(C)c3nccnc3n2C2CC2)cc1 [42 (RP104), 6-(4-Methoxyphenyl)-7-methylcyclopropyl[5H]pyrrolo[2,3-b]pyrazine] has an IC50 [1] greater than 100 µM, an IC50 [2] of 1 µM and an IC50 [3] of 1.1 µM.

Oc1ccc(-c2[nH]c3nccnc3c2CC2CC2)cc1 [43 (RP112), 6-(4-Hydroxyphenyl)-7-methylcyclopropyl[5H]pyrrolo[2,3-b]pyrazine hydrobromide] showed an IC50 [1] greater than 100 µM, an IC50 [2] of 50 µM and an IC50 [3] of 3 µM.

For c1ccc(Cc2c(-c3ccccc3)[nH]c3nccnc23)cc1 [44 (RP92), 7-Benzyl-6-phenyl[5H]pyrrolo[2,3-b]pyrazine], the IC50 [1] was greater than 100 µM, the IC50 [2] was 2 µM and the melting point was 209.8 °C. The IC50 [3] was 1 µM.

In the case of Clc1ccc(-c2[nH]c3nccnc3c2Cc2ccccc2)cc1 [45 (RP91), 7-Benzyl-6-(4-chlorophenyl)[5H]pyrrolo[2,3-b]pyrazine], the IC50 [1] is reported as greater than 100 µM, the melting point is reported as 266.3 °C and the IC50 [3] is reported as 6.8 µM.

Work on COc1ccc(-c2c(C)c3nccnc3n2C2CCCCC2)cc1 [46 (RP98), 6-(4-Methoxyphenyl)-7-methylcyclohexyl[5H]pyrrolo[2,3-b]pyrazine] yielded an IC50 [1] greater than 100 µM, an IC50 [2] of 5 µM and an IC50 [3] of 6.8 µM.

Cc1c(-c2ccc(Cl)cc2)n(C2CCCCC2)c2nccnc12 [47 (RP99), 6-(4-Chlorophenyl)-7-methylcyclohexyl[5H]pyrrolo[2,3-b]pyrazine] gave an IC50 [1] greater than 100 µM, an IC50 [2] of 10 µM and an IC50 [3] of 8 µM.

Work on Cn1c(-c2ccccc2)cc2nccnc21 [48 (RP22)] yielded an IC50 [1] of 7 µM and an IC50 [3] greater than 100 µM.
